Experimental data as given in ChEMBL document CHEMBL5154848, “Synthesis of heterocyclic ring-fused analogs of HMG499 as novel degraders of HMG-CoA reductase that lower cholesterol” (Eur J Med Chem, 2022).
pEC50: −log10 of the molar value.

What was measured:
Assay type in all cases: cell-based
[1] = target: T1, 3-hydroxy-3-methylglutaryl-coenzyme A reductase (Cricetulus griseus, UniProt P00347); assay: Induction of degradation of hamster HMGCR (TM1-8)-GFP (1 to 346 residues) transfected in CHO-7 cells incubated for 16 hrs in sterol-depleted medium by fluorescence based microplate reader assay
T1 sequence (P00347 whole entry): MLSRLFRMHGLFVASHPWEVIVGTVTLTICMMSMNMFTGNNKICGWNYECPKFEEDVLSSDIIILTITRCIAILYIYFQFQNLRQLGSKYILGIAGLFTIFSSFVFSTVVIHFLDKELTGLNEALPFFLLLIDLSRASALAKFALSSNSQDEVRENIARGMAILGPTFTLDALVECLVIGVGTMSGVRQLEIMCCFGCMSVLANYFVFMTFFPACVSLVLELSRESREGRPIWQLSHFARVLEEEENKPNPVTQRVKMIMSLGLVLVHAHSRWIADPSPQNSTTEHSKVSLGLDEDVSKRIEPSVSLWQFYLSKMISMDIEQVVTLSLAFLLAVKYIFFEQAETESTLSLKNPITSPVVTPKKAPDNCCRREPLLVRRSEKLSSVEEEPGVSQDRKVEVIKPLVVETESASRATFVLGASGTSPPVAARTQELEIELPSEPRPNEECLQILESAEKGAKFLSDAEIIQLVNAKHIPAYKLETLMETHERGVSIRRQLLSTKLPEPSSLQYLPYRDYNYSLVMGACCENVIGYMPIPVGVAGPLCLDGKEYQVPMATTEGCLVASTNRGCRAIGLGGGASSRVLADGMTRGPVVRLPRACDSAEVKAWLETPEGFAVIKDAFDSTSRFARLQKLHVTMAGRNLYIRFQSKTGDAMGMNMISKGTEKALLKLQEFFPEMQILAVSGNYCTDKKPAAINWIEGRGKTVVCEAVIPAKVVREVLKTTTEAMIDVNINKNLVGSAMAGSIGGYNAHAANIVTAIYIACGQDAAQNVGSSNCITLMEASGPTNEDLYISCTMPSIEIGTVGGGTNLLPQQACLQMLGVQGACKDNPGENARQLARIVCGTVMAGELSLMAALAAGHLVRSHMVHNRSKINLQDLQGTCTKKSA

[2] = Toxicity in human SV589 cells assessed as cholesterol accumulation in lysosome at 10 uM incubated for 16 hrs by immunofluorescence based confocal microscopy; settings: sv-589, 16 h
[3] = Toxicity in human SV589 cells assessed as cholesterol accumulation in lysosome at 2.5 uM incubated for 16 hrs by immunofluorescence based confocal microscopy; settings: sv-589, 16 h

| Compound | pEC50 [1] | Activity [2] | Activity [3] |
| --- | --- | --- | --- |
| Cc1nc2c(o1)C(C)(C)C1=CC[C@H]3[C@@H]4CC[C@H]([C@H](C)CCC(=O)N5CCOCC5)[C@@]4(C)CC[C@@H]3[C@@]1(C)C2 | 4.55 | – | – |
| CNC(=O)CC[C@@H](C)[C@H]1CC[C@H]2[C@@H]3CC=C4C(C)(C)c5c(cnn5C(C)=O)C[C@]4(C)[C@H]3CC[C@]12C | 6.09 | – | – |
| C=CCC(O)(CC=C)CCC[C@@H](C)[C@H]1CC[C@H]2[C@@H]3[C@@H](O)C=C4C(C)(C)[C@@H](O)CC[C@]4(C)[C@H]3CC[C@]12C.Cl | 6.37 | Toxic | – |
| CCOC(=O)c1noc2c1C[C@@]1(C)C(=CC[C@H]3[C@@H]4CC[C@H]([C@H](C)CCC(=O)N5CCOCC5)[C@@]4(C)CC[C@@H]31)C2(C)C | 5.74 | – | – |
| C[C@H](CCC(=O)N1CCOCC1)[C@H]1CC[C@H]2[C@@H]3CC=C4C(C)(C)c5nnsc5C[C@]4(C)[C@H]3CC[C@]12C | 6.08 | – | – |
| CCOC(=O)c1n[nH]c2c1C[C@@]1(C)C(=CC[C@H]3[C@@H]4CC[C@H]([C@H](C)CCC(=O)N5CCOCC5)[C@@]4(C)CC[C@@H]31)C2(C)C | 6.28 | – | – |
| CC(=O)n1cnc2c1C(C)(C)C1=CC[C@H]3[C@@H]4CC[C@H]([C@H](C)C(=O)N5CCOCC5)[C@@]4(C)CC[C@@H]3[C@@]1(C)C2 | 6.39 | – | – |
| C[C@H](CCC(=O)O)[C@H]1CC[C@H]2[C@@H]3CC=C4C(C)(C)c5nonc5C[C@]4(C)[C@H]3CC[C@]12C | 5.24 | Non-Toxic | – |
| C[C@H](CCC(=O)O)[C@H]1CC[C@H]2[C@@H]3CC=C4C(C)(C)c5nccnc5C[C@]4(C)[C@H]3CC[C@]12C | 5.30 | Non-Toxic | – |
| CC(=O)N1CCC(NC(=O)CC[C@@H](C)[C@H]2CC[C@H]3[C@@H]4CC=C5C(C)(C)c6c(cnn6C(C)=O)C[C@]5(C)[C@H]4CC[C@]23C)CC1 | 6.37 | – | – |
| CC(=O)n1ncc2c1C(C)(C)C1=CC[C@H]3[C@@H]4CC[C@H]([C@H](C)CCC(=O)NCCN5CCOCC5)[C@@]4(C)CC[C@@H]3[C@@]1(C)C2 | 5.56 | – | – |
| CC(C)C(=O)n1cnc2c1C(C)(C)C1=CC[C@H]3[C@@H]4CC[C@H]([C@H](C)CCC(=O)N5CCOCC5)[C@@]4(C)CC[C@@H]3[C@@]1(C)C2 | 6.37 | Non-Toxic | – |
| CC(=O)n1ncc2c1C(C)(C)C1=CC[C@H]3[C@@H]4CC[C@H]([C@H](C)CCC(=O)Nc5ccc(C)cc5)[C@@]4(C)CC[C@@H]3[C@@]1(C)C2 | 5.27 | – | – |
| CC(=O)n1ncc2c1C(C)(C)C1=CC[C@H]3[C@@H]4CC[C@H]([C@H](C)CCC(=O)Nc5ncc([N+](=O)[O-])s5)[C@@]4(C)CC[C@@H]3[C@@]1(C)C2 | 5.32 | – | – |
| CC(C)C(=O)n1cnc2c1C(C)(C)C1=C[C@H](O)[C@H]3[C@@H]4CC[C@H]([C@H](C)CCC(=O)N5CCOCC5)[C@@]4(C)CC[C@@H]3[C@@]1(C)C2 | 6.14 | Toxic | – |
| C[C@H](CCC(=O)O)[C@H]1CC[C@H]2[C@@H]3CC=C4C(C)(C)c5sc(N)nc5C[C@]4(C)[C@H]3CC[C@]12C | 5.31 | Non-Toxic | – |
| C[C@H](CCC(=O)O)[C@H]1CC[C@H]2[C@@H]3CC=C4C(C)(C)c5[nH]ncc5C[C@]4(C)[C@H]3CC[C@]12C | 5.40 | Non-Toxic | – |
| CC(=O)n1ncc2c1C(C)(C)C1=CC[C@H]3[C@@H]4CC[C@H]([C@H](C)CCC(=O)N5CCCCC5)[C@@]4(C)CC[C@@H]3[C@@]1(C)C2 | 5.90 | – | – |
| CCCNC(=O)CC[C@@H](C)[C@H]1CC[C@H]2[C@@H]3CC=C4C(C)(C)c5c(cnn5C(C)=O)C[C@]4(C)[C@H]3CC[C@]12C | 5.69 | – | – |
| C[C@H](CCCC(C)(C)O)[C@H]1CC[C@H]2[C@@H]3[C@@H](O)C=C4C(C)(C)[C@@H](O)CC[C@]4(C)[C@H]3CC[C@]12C | 6.39 | Toxic | – |
| CC(=O)n1ncc2c1C(C)(C)C1=CC[C@H]3[C@@H]4CC[C@H]([C@H](C)CCC(=O)Nc5ncc(C)s5)[C@@]4(C)CC[C@@H]3[C@@]1(C)C2 | 4.90 | – | – |
| CCC(O)(CC)CCC[C@@H](C)[C@H]1CC[C@H]2[C@@H]3[C@@H](O)C=C4C(C)(C)[C@@H](O)CC[C@]4(C)[C@H]3CC[C@]12C | 6.39 | Toxic | – |

| Compound | pEC50 [1] | Activity [2] | Activity [3] |
| --- | --- | --- | --- |
| CCNC(=O)CC[C@@H](C)[C@H]1CC[C@H]2[C@@H]3CC=C4C(C)(C)c5c(cnn5C(C)=O)C[C@]4(C)[C@H]3CC[C@]12C | 5.79 | – | – |
| Cc1nc2c(s1)C(C)(C)C1=CC[C@H]3[C@@H]4CC[C@H]([C@H](C)CCC(=O)O)[C@@]4(C)CC[C@@H]3[C@@]1(C)C2 | 5.47 | Non-Toxic | – |
| CCC(=O)n1cnc2c1C(C)(C)C1=CC[C@H]3[C@@H]4CC[C@H]([C@H](C)CCC(=O)N5CCOCC5)[C@@]4(C)CC[C@@H]3[C@@]1(C)C2 | 6.19 | Non-Toxic | – |
| CC(=O)n1ncc2c1C(C)(C)C1=CC[C@H]3[C@@H]4CC[C@H]([C@H](C)CCC(=O)Nc5nc6ccccc6s5)[C@@]4(C)CC[C@@H]3[C@@]1(C)C2 | 4.50 | – | – |
| CC(=O)n1ncc2c1C(C)(C)C1=CC[C@H]3[C@@H]4CC[C@H]([C@H](C)CCC(=O)NC5CCOCC5)[C@@]4(C)CC[C@@H]3[C@@]1(C)C2 | 6.32 | – | – |
| CC(=O)n1ncc2c1C(C)(C)C1=CC[C@H]3[C@@H]4CC[C@H]([C@H](C)CCC(=O)Nc5nc6c(C)cccc6s5)[C@@]4(C)CC[C@@H]3[C@@]1(C)C2 | 4.36 | – | – |
| C=CCC(O)(CC=C)CCC[C@@H](C)[C@H]1CC[C@H]2[C@@H]3[C@@H](O)C=C4C(C)(C)[C@@H](O)CC[C@]4(C)[C@H]3CC[C@]12C | 6.39 | Toxic | – |
| C[C@H](CCC(=O)N1CCOCC1)[C@H]1CC[C@H]2[C@@H]3CC=C4C(C)(C)c5nc(N)ncc5C[C@]4(C)[C@H]3CC[C@]12C | 5.08 | – | – |
| C[C@H](CCCCC(C)(C)O)[C@H]1CC[C@H]2[C@@H]3[C@@H](O)C=C4C(C)(C)[C@@H](O)CC[C@]4(C)[C@H]3CC[C@]12C | 6.39 | Toxic | – |
| C[C@H](CCC(=O)O)[C@H]1CC[C@H]2[C@@H]3CC=C4C(C)(C)c5c(cnn5-c5ccccc5)C[C@]4(C)[C@H]3CC[C@]12C | 5.06 | Non-Toxic | – |
| CC(=O)n1cnc2c1C(C)(C)C1=C[C@H](O)[C@H]3[C@@H]4CC[C@H]([C@H](C)CCC(=O)N5CCOCC5)[C@@]4(C)CC[C@@H]3[C@@]1(C)C2 | 5.09 | Toxic | – |
| CCN(CC)CCO[C@H]1CC[C@@]2(C)C(=CC[C@@H]3[C@@H]2CC[C@]2(C)C(=O)CC[C@@H]32)C1.Cl | – | – | Toxic |
| CC(=O)n1ncc2c1C(C)(C)C1=CC[C@H]3[C@@H]4CC[C@H]([C@H](C)CCC(=O)Nc5ccccc5C)[C@@]4(C)CC[C@@H]3[C@@]1(C)C2 | 5.35 | – | – |
| CC(=O)n1cnc2c1C(C)(C)C1=CC[C@H]3[C@@H]4CC[C@H]([C@H](C)CCCC(=O)N5CCOCC5)[C@@]4(C)CC[C@@H]3[C@@]1(C)C2 | 6.01 | – | – |
| CC(=O)n1ncc2c1C(C)(C)C1=CC[C@H]3[C@@H]4CC[C@H]([C@H](C)CCC(=O)O)[C@@]4(C)CC[C@@H]3[C@@]1(C)C2 | 5.58 | Non-Toxic | – |
| CC(=O)n1cnc2c1C(C)(C)C1=CC[C@H]3[C@@H]4CC[C@H]([C@H](C)CCCCC(=O)N5CCOCC5)[C@@]4(C)CC[C@@H]3[C@@]1(C)C2 | 5.96 | – | – |
| C=C(C)C(=O)n1cnc2c1C(C)(C)C1=CC[C@H]3[C@@H]4CC[C@H]([C@H](C)CCC(=O)N5CCOCC5)[C@@]4(C)CC[C@@H]3[C@@]1(C)C2 | 6.12 | Non-Toxic | – |
| CCCC(=O)n1cnc2c1C(C)(C)C1=CC[C@H]3[C@@H]4CC[C@H]([C@H](C)CCC(=O)N5CCOCC5)[C@@]4(C)CC[C@@H]3[C@@]1(C)C2 | 6.28 | Non-Toxic | – |
| CCC(O)(CC)CC[C@@H](C)[C@H]1CC[C@H]2[C@@H]3CC=C4C(C)(C)c5c(ncn5C(C)=O)C[C@]4(C)[C@H]3CC[C@]12C | 6.20 | Non-Toxic | – |
| CC(=O)n1cnc2c1C(C)(C)C1=CC[C@H]3[C@@H]4CC[C@H]([C@H](C)CC(=O)N5CCOCC5)[C@@]4(C)CC[C@@H]3[C@@]1(C)C2 | 6.55 | – | – |
| CCC(O)(CC)CCCC[C@@H](C)[C@H]1CC[C@H]2[C@@H]3[C@@H](O)C=C4C(C)(C)[C@@H](O)CC[C@]4(C)[C@H]3CC[C@]12C | 6.39 | Toxic | – |
